From ChEMBL document CHEMBL1155567, “Three new toxic norditerpenoid alkaloids from the low larkspur Delphinium nuttallianum” (J Nat Prod, 2000)

Assay: Toxicity in iv dosed 24 hrs fasted Swiss-Webster mouse
Assay type: organism-based
Details: in vivo

Compound | LD50 [mg/kg]
CCN1C[C@]2(COC(=O)c3ccccc3N3C(=O)C[C@H](C)C3=O)CC[C@H](OC)[C@]34C5C[C@@H]6[C@@H](OC(C)=O)C[C@@](O)(C5[C@H]6O)[C@@](O)([C@H]13)[C@@H](OC)C24 (stereo partly drawn) | 5.7
CCN1C[C@]2(COC(=O)c3ccccc3N3C(=O)C[C@H](C)C3=O)CC[C@H](OC)[C@]34C5C[C@@H]6[C@@H](OC(C)=O)C[C@@](O)(C5[C@H]6OC(C)=O)[C@@](O)([C@H]13)[C@@H](OC)C24 (stereo partly drawn) | 3.3
CCN1C[C@]2(COC(=O)c3ccccc3N3C(=O)C[C@H](C)C3=O)CC[C@H](OC)[C@]34C5C[C@@H]6[C@@H](OC(C)=O)C[C@@](O)(C5[C@H]6OC)[C@@](O)([C@H]13)[C@@H](OC)C24 (stereo partly drawn) [GEYERLINE] | 6.2
